# “And” between values parts separate entries of the source, which are not always exact repeats. Equal values may be shown once.
# How the values were obtained:
# IL-8 = IL-8 protein expression of damaged stromal cells (Western blot, ELISA); type: cell-based, human; details: ELISA of extracellular fluid, bleomycin plus inhibitor
# Method: FIG. 15. The stromal cells were collected on Day 7 after bleomycin and/or 5Z-7 treatment. The lysates were analyzed by Western blot for their phosphorylation levels of ATM and TAK1, and activation of TAK1 downstream substrate JN K and p38. IL-8, a chemokine was used as a marker secreted factor of SASP, whose expression level was simultaneously analyzed. FIG. 33. The extracellular fluid released by each group of cells were tested by ELISA to determine the protein expression level of the secreted factor IL-8.
# NF-κB complex = test: NF-κB activation in bleomycin-treated stromal cells (nuclear translocation, luciferase reporter); type: cell-based, human; details: for NF-κB transcriptional activity (reporter vector): bleomycin plus inhibitor, luciferase reporter
# Method: FIG. 22. The stromal cells pre-transduced with the NF-κB transcriptional luciferase reporter vector were treated with bleomycin and/or RAD001. The cells were collected on Day 7 and detected for the fluorescence signal intensity of the reporter vector.
# FIG. 32. Detection of NF-kB transcriptional activity based on the reporter vector. Stromal cells were treated with bleomycin along with the PI3K small molecule inhibitor LY294002 (1 μM), Akt inhibitor MK-2206 (100 nM), mTOR inhibitor RAD001 (50 nM), p38 inhibitor SB203580 (10 μM) and TAK1 inhibitor 5Z-7 (500 nM), respectively, and cell lysates were used for determining luciferase activity.
# The […] vector pBABE-puro-IκBα-mut (Super repressor) containing two phosphorylated mutant sites of IKK at S32A and S34A on the IκBα protein encoding sequence were used for transfection of lentivirus-packing cell line phoenix. Lentiviruses were subsequently used to infect PSC27 stromal cell line, whereas 1 μg/ml puromycin was used to screen positive clones. As another method, 5 μm of the small molecule inhibitor Bay11-7082 (purchased from Selleck) was used for NF-κB activity control. Stromal cells were subsequently exposed to several different forms of cytotoxicity, with the resulting phenotype recorded in time, and the relevant gene expression analyzed. The resulted conditioned culture medium produced from cells processed in this way was collected for various detection of epithelial cells.
# Even so, is TAK1 activated indirectly by upstream DDR signaling associated with activation of a core transcription factor, NF-κB complex involved in the broad-spectrum expression of the SASP? The NF-κB complex was previously reported to be mediated by mono-ubiquitination of IκB kinase subunit γ (IKKγ) in cytoplasm. After isolating nucleus from cytoplasmic proteins using a kit, the inventor finds that TAK1 phosphorylation is associated with nuclear translocation of p50 and p65, the two main subunits of NF-κB complex (FIG. 4).
# [1] = tested on: prostate-derived stromal cell line PSC27 and epithelial cancer cell line PC3 xenograft tumors; test: Preclinical chemotherapy trial, subcutaneous PC3/PSC27 tissue-recombinant tumors, terminal tumor volume; type: in vivo, ICR-SCID mice; details: for further decrease in terminal tumor volume: inhibitor combined with mitoxantrone (MIT) vs mitoxantrone alone (group 8 vs group 6); for decrease in terminal tumor volume: mitoxantrone alone vs no drug (group 6 vs group 5)
# Method: All experimental mouse experiments were carried out in strict accordance with the relevant regulations of the Institutional animal care and use committee (IACUC) of the shanghai Institute of Life Sciences of the Chinese Academy of Sciences. ICR-SCID mice at an age of about 6 weeks (about 25 g in body weight) were used in this patent-related animal experiment. Stromal cells PSC27 and epithelial cells were mixed at a ratio of 1:4, with each implant containing 1.25×10^6 cells for tissue recombination. The transplant tumor was implanted into mice subcutaneously, and the animals were euthanized at the end of Week 8 after transplantation. The tumor volume was calculated according to the following formula: V=(π/6)×((l+w)/2)^3 (V, volume; l, length; w, width). Similarly, lung and breast cancer xenograft tumors were formed by tissue recombination with A549 (non-small cell lung cancer cell line) and W138 (lung fibroblast line), MDA-MB-231 (triple negative breast cancer cell line) and HBF1203 (breast fibroblast line), respectively.
# In the preclinical chemotherapy trial, mice subcutaneously transplanted with tumors were fed standard experimental diet. After 2 weeks, the chemotherapeutics mitoxantrone (dose of 0.2 mg/kg) and/or SASP inhibitors (500 μl, dose of 10 mg/kg, RAD001, SB203580 and 5Z-7 were purchased from Tocris; LYTAK, purchased from Lilly Co ((Indianapolis, Ind.), 5 mg/kg) were administrated intraperitoneally. The timepoint was the first day of Week 3, 5, 7, and the whole course of treatment was composed of three cycles of administration, each cycle lasted for 2 weeks. After the course of treatment, mouse […] was collected for tumor measurement and histological analysis. Each mouse received cumulatively 0.6 mg mitoxantrone/kg body weight and 30 mg SASP inhibitor/kg body (15 mg/kg body weight for LYTAK1). Mice xenografted with lung cancer and breast cancer tumor received bleomycin (totally 0.3 mg/kg) and doxorubicin (totally 0.2 mg/kg), respectively. The timepoints and frequency were same as the administration of mitoxantrone. The chemotherapeutic trial was performed until the end of Week 8, and the mice were dissected immediately after death. The transplant tumors were collected and used for analysis in a pathological system.
# In order to simulate clinical conditions as much as possible, the present inventor inoculated the subcutaneous site of immunodeficient mice with an admixture of prostate-derived stromal cell line PSC27 and epithelial cancer cell line PC3. The mice subsequently underwent a regimen of 8-week preclinical chemotherapy, which included three single- or double-drug treatments based on a series of pre-experimental data (FIGS. 64 and 65). In the absence of stromal cells, PC3 cells were still able to form tumors under screening pressure caused by chemotherapeutics, though their volumes were smaller than that generated in the case of concurrent inoculation of stromal cells and cancer cells. Such difference also objectively confirmed the tumor-promoting effect of the microenvironment (FIG. 66).
# p38MAPK, JNK, ATM = test: Western blot of JNK, p38MAPK and ATM phosphorylation in damaged stromal cells; type: cell-based, human; details: bleomycin and/or SB203580
# Method: (§1) The nitrocellulose filter membrane was blocked at room temperature for 1 h in the blocking solution (TBST containing 5% skim milk powder (0.1% Tween-20 in TBS)), incubated overnight at 4° C. in a primary antibody solution, rinsed at TBST room temperature for 3 times, each for 2 min. The corresponding secondary antibody conjugated with HRP prepared with the blocking solution was added, the filter membrane was incubated at room temperature for 0.5 h. The filter membrane was rinsed with PBST at room temperature for 3 times, each for 2 min.
# mTOR = biological target: T1, mTOR (Homo sapiens, UniProt P42345+P62942); test: Western blot of Akt/mTOR pathway activation in bleomycin-treated stromal cells; type: cell-based
# T1 construct: endogenous in cells; host or cells: PSC27 human prostate stromal cells
# Method: as §1
# PSC27 cells = test: DNA damage response foci, colony formation, cell cycle arrest and SA-β-Gal in PSC27 cells; type: cell-based, human
# Method: Experimental Treatment In Vitro • 100 nM docetaxel (DTX), 100 nM paclitaxel (PTX), 200 nM vincristine (VCR), 50 μg/ml bleomycin (BLEO), 1 μM mitoxantrone (MIT), or 10 Gy ^137CS ionizating radiation (γ-radiation at 743 rad/min, RAD) was added to the culture medium when PSC27 cells grown to 80% (PSC27-Pre) to produce cell damage. After drug treatment for 6 hours, the cells were simply washed by PBS for 3 times and kept in the culture medium for 7 to 10 days, followed by subsequent experiments. […] Immunofluorescence and Histochemical Analysis • Mouse monoclonal antibody anti-phospho-Histone H2A.X (Ser139) (clone JBW301, Millipore) or mouse monoclonal antibody anti-Phosphor-53BP1 (Cat #sc-135748, Santa Cruz), and secondary antibody Alexa Fluor® 488 (or 594)-conjugated F(ab′)2 were added sequentially to slides on which cells were fixed. Nuclei were counterstained with 2 μg/ml of 4′,6-diamidino-2-phenylindole (DAPI). The most representative image was selected from the 3 observation fields for data analysis and result presentation. FV1000 laser scanning confocal microscopy (Olympus) was used to obtain cellular confocal fluorescence images to determine the extent of DNA damage. • Antibody anti-TAK1 used for histological IHC staining in clinical prostate, non-small cell lung cancer patients and breast cancer patients, was purchased from Proteintech, idib.
# TAK1 = biological target: T2, TAK1 (Homo sapiens, UniProt O43318); test: IP, in vitro kinase assay and Western blot of TAK1 activation in damaged PSC27 stromal cells; type: cell-based; details: PSC27 cells treated with IL-1α (20 ng/ml)
# T2 construct: PSC27 cells were treated with bleomycin and cell lysates were subject to anti-p-TAK1-mediated IP precipitation; endogenous in cells; host or cells: PSC27 human prostate stromal cells
# T2 sequence (O43318 1-606): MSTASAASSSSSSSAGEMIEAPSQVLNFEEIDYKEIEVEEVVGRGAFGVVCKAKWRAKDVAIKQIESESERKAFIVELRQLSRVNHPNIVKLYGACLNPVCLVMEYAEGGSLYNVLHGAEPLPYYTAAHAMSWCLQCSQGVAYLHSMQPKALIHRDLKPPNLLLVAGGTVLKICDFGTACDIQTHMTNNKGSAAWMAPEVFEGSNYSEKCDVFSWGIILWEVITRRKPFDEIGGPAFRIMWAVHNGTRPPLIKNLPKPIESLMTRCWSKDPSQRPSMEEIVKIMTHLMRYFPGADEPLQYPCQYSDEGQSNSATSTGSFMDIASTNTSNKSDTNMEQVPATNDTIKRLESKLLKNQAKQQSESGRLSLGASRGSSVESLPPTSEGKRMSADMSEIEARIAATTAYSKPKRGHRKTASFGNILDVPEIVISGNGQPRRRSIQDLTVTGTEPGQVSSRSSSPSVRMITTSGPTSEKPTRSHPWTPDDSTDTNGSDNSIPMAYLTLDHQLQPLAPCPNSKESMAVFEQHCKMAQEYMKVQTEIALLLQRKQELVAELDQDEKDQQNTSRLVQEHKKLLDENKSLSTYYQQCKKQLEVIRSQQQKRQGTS
# Method: In the presence of the TAK1 inhibitor 5Z-7, PSC27 cells were treated with bleomycin and cell lysates were subject to anti-p-TAK1-mediated IP precipitation. IP products were analyzed by in vitro kinase assay, and MKK6 was used as TAK1 substrate. p38 phosphorylation was analyzed by Western blot with GAPDH as the loading control. In addition, IL-1α (20 ng/ml) was used to treat stromal cells and was further analyzed by similar IP and in vitro kinase assay.
molecule,measurement,setting,value
C[S+]([O-])c1ccc(-c2nc(-c3ccncc3)c(-c3ccc(F)cc3)[nH]2)cc1 (centres unmarked) [SB203580],chemokine IL-8 protein levels induced by DNA damage,IL-8,significantly reduced
same,NF-κB transcriptional activity (reporter vector),NF-κB complex,significantly reduced
same,further decrease in terminal tumor volume,[1]; end of Week 8,46%
same,phosphorylation level of p38,"p38MAPK, JNK, ATM",significantly reduce
NC1(c2ccc(-c3nc4ccn5c(=O)[nH]nc5c4cc3-c3ccccc3)cc2)CCC1 [MK-2206],chemokine IL-8 protein levels induced by DNA damage,IL-8,significantly reduced
same,activity of mTOR,mTOR; simultaneous treatment of bleomycin and MK-2206,significantly downregulated
same,NF-κB transcriptional activity (reporter vector),NF-κB complex,significantly reduced
CO[C@H]1C[C@@H]2CC[C@@H](C)[C@@](O)(O2)C(=O)C(=O)N2CCCC[C@H]2C(=O)O[C@H]([C@H](C)C[C@@H]2CC[C@@H](OCCO)[C@H](OC)C2)CC(=O)[C@H](C)/C=C(\C)[C@@H](O)[C@@H](OC)C(=O)[C@H](C)C[C@H](C)/C=C/C=C/C=C/1C [RAD001],activation of mTOR substrates S6K1 and 4E-BP1,"mTOR; bleomycin and/or RAD001, Day 7",inhibition of S6K1 and 4E-BP1 activation
same,"phosphorylation of IKKβ, degradation of IRAK1 and IkBα, nuclear translocation of p65 and p50","NF-κB complex; after DNA damage, RAD001 added to the medium",largely abolished
same,NF-κB transcriptional activity (reporter vector),NF-κB complex,significantly attenuated
same,further decrease in terminal tumor volume,[1]; end of Week 8,44%
same,cell cycle arrest and SA-β-Gal activity,PSC27 cells; bleomycin-damaged stromal cells in the presence of RAD001,remained unaffected
same,single-cell level of DDR foci,"PSC27 cells; bleomycin-treated cells, presence or absence of inhibitor",remained unchanged
"IL-1α: cytokine, known upstream regulatory factor for TAK1",TAK1/MKK6 interaction,TAK1,significantly enhanced
same,p38 kinase activity,TAK1,significantly increased
O=C1c2c(O)ccc(O)c2C(=O)c2c(NCCNCCO)ccc(NCCNCCO)c21 [mitoxantrone],decrease in terminal tumor volume,[1]; end of Week 8,37%
same,decrease in terminal tumor volume,"[1]; end of Week 8, listed as MIT",37% and 36%

# — patent US11344601B2, “Tumor microenvironment-related target TAK1 and application thereof in inhibition of tumor” (Shanghai Institutes for Biological Sciences, Chinese …, priority 2017, dated 2022)
